Assay results from patent US7399869B2, “Fibroblast activation protein inhibitor compounds and methods” (Genentech, Inc., priority 2005, dated 2008).

Columns and labels:
Assay type in all cases: biochemical
DPP-8 = target: T1, DPP-8 (Homo sapiens, UniProt Q6V1X1); test: Inhibition of DPP-8 by Ac-Gly-boroPro 5
T1 construct: 2-883 of DPP-8; FLAG (N); made in house; host or cells: 293 cells; template plasmid from Origene
Experimental: (§1) To establish whether Ac-Gly-BoroPro 5 inhibits these prolyl peptidases, each protease was cloned, expressed and assayed to determine Km and Ki values and monitor their activity.
(§2) Briefly, proteases were added to a reaction mixture containing inhibitor and substrate (Ac-Ala-AMC for APH, Z-Gly-Pro-AMC for POP, and Ala-Pro-AFC for all others) in assay buffer at 23° C. Protease activity was followed continuously as described above to monitor time-dependent inhibition. Data were plotted as V0/Vi−1 versus [I], where V0 is the rate if substrate hydrolysis in the absence of inhibitor, Vi is the steady state rate of substrate hydrolysis in the presence of inhibitor and [I] is the concentration of Ac-Gly-BoroPro.
(§3) KI values for inhibition of proteases by 5 were determined using the method of progress curves. Briefly, proteases (10-100 nM) were added to a reaction mixture containing inhibitor 5 (0-10 μM) and substrate AP-AFC in assay buffer at 23° C. […] Ki, the true equilibrium inhibition constant was determined according to the following relationship: Ki=Kobs/(1+[S]/Km), where [S] is the concentration of substrate used in the assay and Km is the Michaelis constant for substrate cleavage. […]

DPP-9 = target: T2, DPP-9 (Homo sapiens, UniProt Q86TI2); test: Inhibition of DPP-9 by Ac-Gly-boroPro 5
T2 construct: 2-864 of DPP-9; FLAG (N); made in house; host or cells: 293 cells; template plasmid from Origene
T2 sequence (Q86TI2 2-863 limits assumed): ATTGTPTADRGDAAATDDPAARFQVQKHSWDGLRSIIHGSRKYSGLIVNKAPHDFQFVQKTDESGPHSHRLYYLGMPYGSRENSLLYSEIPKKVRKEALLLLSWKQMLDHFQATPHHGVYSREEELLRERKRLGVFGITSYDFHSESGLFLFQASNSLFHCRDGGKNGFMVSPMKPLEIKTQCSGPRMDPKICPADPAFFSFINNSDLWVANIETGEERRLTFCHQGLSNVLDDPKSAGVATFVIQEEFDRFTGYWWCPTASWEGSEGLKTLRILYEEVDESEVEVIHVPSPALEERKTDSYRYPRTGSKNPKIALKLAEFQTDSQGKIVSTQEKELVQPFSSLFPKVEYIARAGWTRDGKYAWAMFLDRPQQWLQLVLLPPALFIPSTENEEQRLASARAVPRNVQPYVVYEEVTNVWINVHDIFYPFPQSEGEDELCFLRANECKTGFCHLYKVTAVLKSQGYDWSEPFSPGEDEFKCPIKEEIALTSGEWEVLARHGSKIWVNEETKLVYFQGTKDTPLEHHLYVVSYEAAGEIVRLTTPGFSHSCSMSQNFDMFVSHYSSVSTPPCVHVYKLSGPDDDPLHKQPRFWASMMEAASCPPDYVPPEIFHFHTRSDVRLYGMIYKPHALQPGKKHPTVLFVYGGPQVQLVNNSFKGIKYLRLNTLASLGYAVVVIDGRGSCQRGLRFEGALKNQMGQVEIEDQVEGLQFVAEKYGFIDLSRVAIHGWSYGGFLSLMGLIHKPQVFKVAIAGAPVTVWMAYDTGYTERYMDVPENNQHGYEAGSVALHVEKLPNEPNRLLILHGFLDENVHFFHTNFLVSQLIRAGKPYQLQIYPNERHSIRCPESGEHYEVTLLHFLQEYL
Experimental: as §1, §2, §3

APH = target: T3, APH (Homo sapiens, UniProt P13798); test: Inhibition of APH by Ac-Gly-boroPro 5; details: substrate Ac-Ala-AMC, 23° C., progress curves
T3 construct: 2-732 of APH; FLAG (N); made in house; host or cells: 293 cells; template plasmid from Origene
T3 sequence (P13798 2-732): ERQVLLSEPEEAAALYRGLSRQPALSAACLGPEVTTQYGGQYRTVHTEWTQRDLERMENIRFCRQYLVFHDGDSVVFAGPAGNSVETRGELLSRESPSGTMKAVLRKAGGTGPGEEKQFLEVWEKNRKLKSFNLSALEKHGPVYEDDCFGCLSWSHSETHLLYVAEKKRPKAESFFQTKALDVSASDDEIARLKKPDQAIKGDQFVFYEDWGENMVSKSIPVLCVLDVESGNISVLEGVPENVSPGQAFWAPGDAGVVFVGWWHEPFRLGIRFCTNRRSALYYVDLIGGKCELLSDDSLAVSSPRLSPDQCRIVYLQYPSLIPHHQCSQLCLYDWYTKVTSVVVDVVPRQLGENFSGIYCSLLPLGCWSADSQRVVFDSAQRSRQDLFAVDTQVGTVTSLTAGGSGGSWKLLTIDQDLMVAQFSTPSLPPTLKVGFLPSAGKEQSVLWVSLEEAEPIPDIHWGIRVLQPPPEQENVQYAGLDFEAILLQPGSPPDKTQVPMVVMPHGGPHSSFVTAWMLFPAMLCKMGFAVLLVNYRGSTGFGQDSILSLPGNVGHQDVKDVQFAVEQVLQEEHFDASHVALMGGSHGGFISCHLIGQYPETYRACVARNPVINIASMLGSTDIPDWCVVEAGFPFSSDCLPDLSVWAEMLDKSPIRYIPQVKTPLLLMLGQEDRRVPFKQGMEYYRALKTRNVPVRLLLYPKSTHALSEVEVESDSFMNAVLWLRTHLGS
Experimental: as §1, §2, §3

DPP-7 = target: T4, DPP-7 (Homo sapiens, UniProt Q9UHL4); test: Inhibition of DPP-7 by Ac-Gly-boroPro 5; details: substrate Ala-Pro-AFC, 23° C., progress curves
T4 construct: These constructs encoded amino acids 26-492 of DPP-7; FLAG (N); made in house; host or cells: 293 cells; template plasmid from Origene
Experimental: as §1, §2, §3

[1] = target: T5, full-length (transmembrane) murine FAP (Mus musculus, UniProt P97321); test: Inhibition of murine FAP in cell lysate
T5 sequence (P97321 1-761): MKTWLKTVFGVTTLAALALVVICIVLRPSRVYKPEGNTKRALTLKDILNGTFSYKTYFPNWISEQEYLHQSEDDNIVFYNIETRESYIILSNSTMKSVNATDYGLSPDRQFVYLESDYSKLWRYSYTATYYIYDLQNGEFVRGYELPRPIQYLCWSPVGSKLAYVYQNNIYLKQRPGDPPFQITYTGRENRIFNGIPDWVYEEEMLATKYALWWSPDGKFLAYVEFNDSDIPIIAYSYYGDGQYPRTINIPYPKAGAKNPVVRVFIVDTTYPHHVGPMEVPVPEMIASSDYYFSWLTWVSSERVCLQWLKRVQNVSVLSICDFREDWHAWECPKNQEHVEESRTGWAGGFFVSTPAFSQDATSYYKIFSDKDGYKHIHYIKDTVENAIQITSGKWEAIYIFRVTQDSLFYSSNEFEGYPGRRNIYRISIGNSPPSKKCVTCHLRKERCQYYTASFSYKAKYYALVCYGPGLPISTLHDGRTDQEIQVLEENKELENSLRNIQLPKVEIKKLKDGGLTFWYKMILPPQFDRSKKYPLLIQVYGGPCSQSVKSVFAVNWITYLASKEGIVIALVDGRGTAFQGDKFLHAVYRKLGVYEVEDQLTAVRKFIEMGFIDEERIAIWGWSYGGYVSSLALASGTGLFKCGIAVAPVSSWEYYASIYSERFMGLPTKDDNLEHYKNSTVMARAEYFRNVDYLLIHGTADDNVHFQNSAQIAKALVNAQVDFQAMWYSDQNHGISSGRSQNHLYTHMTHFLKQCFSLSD

[2] = substrate Ala-Pro-AFC, 23° C., progress curves

T1 sequence (Q6V1X1 18-898 limits assumed): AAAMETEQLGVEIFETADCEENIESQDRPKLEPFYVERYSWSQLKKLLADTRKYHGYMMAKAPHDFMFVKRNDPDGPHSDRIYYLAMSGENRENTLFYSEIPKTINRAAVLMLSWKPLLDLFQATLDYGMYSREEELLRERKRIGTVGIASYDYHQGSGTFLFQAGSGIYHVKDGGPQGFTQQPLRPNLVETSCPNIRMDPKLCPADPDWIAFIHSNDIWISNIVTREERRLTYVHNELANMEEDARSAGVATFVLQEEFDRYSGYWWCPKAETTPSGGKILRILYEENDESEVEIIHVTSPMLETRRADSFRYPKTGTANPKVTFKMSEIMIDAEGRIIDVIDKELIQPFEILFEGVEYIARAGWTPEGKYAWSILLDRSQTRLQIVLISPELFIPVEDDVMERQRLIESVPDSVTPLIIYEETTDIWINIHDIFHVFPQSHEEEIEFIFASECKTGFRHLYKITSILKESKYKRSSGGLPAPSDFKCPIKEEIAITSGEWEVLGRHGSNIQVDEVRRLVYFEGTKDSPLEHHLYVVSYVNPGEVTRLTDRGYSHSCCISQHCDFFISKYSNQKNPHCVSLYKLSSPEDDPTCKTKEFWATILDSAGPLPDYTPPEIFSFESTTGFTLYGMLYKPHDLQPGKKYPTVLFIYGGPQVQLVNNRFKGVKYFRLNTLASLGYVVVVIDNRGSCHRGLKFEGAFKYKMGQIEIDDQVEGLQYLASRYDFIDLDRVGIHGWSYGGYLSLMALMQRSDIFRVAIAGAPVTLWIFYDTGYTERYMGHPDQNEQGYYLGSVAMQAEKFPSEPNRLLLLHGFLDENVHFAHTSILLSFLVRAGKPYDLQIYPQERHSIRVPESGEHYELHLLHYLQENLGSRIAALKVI

- reactivity with DPP-8 (DPP-8): poor reactivity
- Ki (DPP-8; [2]): 19.1 µM
- reactivity with DPP-9 (DPP-9): poor reactivity
- Ki (DPP-9; [2]): 8.8 µM
- Ki (APH): 0.575 µM
- Ki (DPP-7): 125 µM
- inhibits full-length (transmembrane) murine FAP at [1]: 117 nM
SMILES: CC(=O)NCC(=O)N1CCCC1B(O)O (stereo not shown) [N-Ac-Gly-boroPro 5, N-acetyl-gly-boroproline]
